Experimental data from PubChem BioAssay (NCI).
“And” between values parts separate entries of the source, which are not always exact repeats. Identical values can stand only once.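 Five concentrations, 48 hours, 96-well plates. Abbreviation: GI50, concentration required for 50% inhibition of growth. Definition used: TGI = concentration required for complete inhibition of growth.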

Key:
Experiment in all cases: growth of human tumour cells (NCI), 48 h
[1] = tested on: COLO 205 colon
[2] = tested on: HL-60(TB) leukemia
[3] = tested on: PC-3 prostate
[4] = tested on: DU-145 prostate
[5] = tested on: OVCAR-3 ovarian
[6] = tested on: LOX IMVI melanoma
[7] = tested on: A549 NSCLC
[8] = tested on: A498 renal
[9] = tested on: KM12 colon
[10] = tested on: UO-31 renal

Compound	GI50 [1]	TGI [1]	GI50 [2]	TGI [2]	GI50 [3]	TGI [3]	GI50 [4]	TGI [4] [µM]	GI50 [5]	TGI [5]	GI50 [6]	TGI [6]	GI50 [7]	TGI [7]	GI50 [8]	TGI [8]	GI50 [9]	TGI [9]	GI50 [10]	TGI [10]
O=C(/C=C/C12c3ccccc3C(c3ccccc31)C1C(=O)NC(=O)C12)c1ccc(F)cc1 (configuration not stated)	2.18 µM	4.27 µM	0.0217 µM	2.1 µM	1.66 µM	3.38 µM	1.63 µM	3	1.7 µM	3.15 µM	1.67 µM	3.28 µM	2.39 µM	7.01 µM	1.68 µM	3.11 µM	1.78 µM	3.43 µM	1.42 µM	2.85 µM
O=C1C=CC(=O)N1c1cccc(N2C(=O)C=CC2=O)c1	1.39 µM	2.88 µM	1.79 µM	5.12 µM	13.4 µM	31.6 µM	10.9 µM	22.8	2.04 µM	3.54 µM	2.02 µM	4.02 µM	19.3 µM	45.4 µM	16.2 µM	31.1 µM	8.33 µM	22.7 µM	1.94 µM	4.11 µM
CC1=C(C(=O)Nc2cc(Cl)c3[nH]ncc3c2)C(c2ccc(C(F)(F)F)cc2)CC(=O)N1 (configuration not stated)	14.8 µM	> 25 µM	> 21.2 µM	> 25 µM	> 25 µM	> 25 µM	> 25 µM	> 25	> 25 µM	> 25 µM	> 20.4 µM	> 25 µM	> 25 µM	> 25 µM	11.7 µM	> 25 µM	20 µM	> 25 µM	2 µM	> 25 µM
COc1cc2nccc(Oc3ccc(NC(=O)Nc4cc(C)on4)c(Cl)c3)c2cc1OC	3.22 µM and 3.04 µM	32.7 µM and > 10 µM	3.35 µM and 3.2 µM	11.8 µM and > 10 µM	4.74 µM and 5.91 µM	> 100 µM	4.31 µM and 6.6 µM	> 77.8	4 µM and 7.96 µM	14.4 µM and > 10 µM	2.21 µM and 2.19 µM	8.14 µM and > 10 µM	3.15 µM and 4.31 µM	19.1 µM and > 10 µM	0.532 µM and 1.46 µM	2.67 µM and 4.6 µM	0.178 µM and 0.25 µM	> 66.6 µM	1.88 µM and 2.5 µM	5.76 µM and > 10 µM
Cc1cc(N2CCOCC2)nc(N(CCCNc2ccnc3cc(Cl)ccc23)Cc2ccco2)n1	1.71 µM	3.72 µM	1.87 µM	4.55 µM	3.03 µM	12.9 µM	3.23 µM	14.2	1.81 µM	4.49 µM	1.58 µM	3.81 µM	3.77 µM	13.6 µM	2.2 µM	6.04 µM	2.7 µM	12.8 µM	1.61 µM	6.77 µM
O=C1C2CCN(CC2)C1(CO)CO		43 µM		> 78.6 µM		> 100 µM		31.6		31 µM		36 µM		> 100 µM		> 79.7 µM		> 93.2 µM		34.1 µM
CN1CCN(c2ccc(NC(=O)c3cncnc3Nc3ccc(OCc4ccccn4)c(Cl)c3)cc2)CC1	1.41 µM	6.19 µM	4.11 µM	9.28 µM	3.8 µM	12 µM	4.28 µM	8.8	5.23 µM	13 µM	3.39 µM	8.46 µM	2.22 µM	7.71 µM	1.48 µM	6.98 µM	4.16 µM	9.63 µM	3.89 µM	9.97 µM
CC(=O)O[C@H](C[C@H](C(C)C)N(C)C(=O)[C@@H](NC(=O)[C@H]1CCCN1C)C(C)C)c1nc(C(=O)N[C@@H](Cc2ccccc2)C[C@H](C)C(=O)O)c(C)s1	0.00197 µM	0.0255 µM	< 0.00167 µM	< 0.00167 µM	< 0.00167 µM	> 16.7 µM	0.00224 µM	> 16.7			< 0.00167 µM	> 16.7 µM	0.0155 µM	> 16.7 µM	< 0.00167 µM	0.00956 µM	< 0.00167 µM	> 16.7 µM	0.011 µM	> 16.7 µM
CCOC(=O)C#Cc1c(C(=O)OCC)nnn1Cc1ccc([N+](=O)[O-])cc1	1.97 µM	3.79 µM	1.62 µM	5.62 µM	10.2 µM	22.4 µM	3.88 µM	14.2			0.949 µM	2.29 µM	20.6 µM	34.8 µM	15.2 µM	28.5 µM	10.2 µM	24.1 µM	1.75 µM	3.78 µM
CC(=O)O[C@H]1[C@@H]2OC(=O)C(CSc3ccccc3)[C@@H]2C[C@H]2O[C@]2(C)CC/C=C(\C)CCC[C@@H]1C (some centres not stated)	1.75 µM	3.9 µM	1.4 µM	4.69 µM	2.53 µM	11.1 µM	2.34 µM	5.6	1.87 µM	4.11 µM	3.22 µM	13.9 µM	4.34 µM	21.4 µM	2.17 µM	6.37 µM	3.58 µM	14 µM	1.96 µM	5.26 µM
CC(CN(C)C)Oc1ccccc1NC1=C(Cl)C(=O)C(Nc2ccccc2OC(C)CN(C)C)=C(Cl)C1=O (configuration not stated)	0.174 µM	0.359 µM	0.272 µM	0.902 µM	1.33 µM	2.86 µM	0.255 µM	0.686	0.167 µM	0.31 µM	0.183 µM	0.377 µM	1.7 µM	3.24 µM	1.51 µM	2.86 µM	1.2 µM	2.57 µM	0.437 µM	0.853 µM
CCn1c(-c2nonc2N)nc2c(C#CC(C)(C)O)ncc(OC[C@H]3CCCNC3)c21	9.75 µM	26.3 µM	10.6 µM	32 µM	10.4 µM	70.8 µM	12.9 µM	73.8	6.92 µM	25.9 µM	17.8 µM	45.6 µM	15.6 µM	62.3 µM	0.0469 µM	0.584 µM	4.54 µM	63.8 µM	> 38.7 µM	> 100 µM
CN(Cc1cc(Br)cc(Br)c1O)Cc1c(O)ccc2ccccc12		36.7 µM		46.1 µM		33.5 µM		40.6		31.8 µM		42.5 µM		40.9 µM		36.2 µM		33.5 µM		30.9 µM
C[N+](C)(C)CC(=O)N/N=C(\C(=O)NC1=C(Cl)C(=O)c2ccccc2C1=O)C(C#N)c1nc(-c2ccc([N+](=O)[O-])cc2)cs1 (configuration not stated)		35 µM		47.4 µM		56.8 µM		14.1		4.44 µM		9.48 µM		19.4 µM		33.3 µM		63.7 µM		31 µM
CCCN(CCC)c1ccc(/C=N/NC(=O)c2cccnc2)c(OC)c1	20.1 µM	46.3 µM	22.7 µM	59.2 µM	25.2 µM	> 100 µM	27.8 µM	94.8	16.9 µM	36.7 µM	23.6 µM	> 100 µM	26.6 µM	> 100 µM	2.27 µM	17.9 µM	21.3 µM	68.3 µM	17.4 µM	71.6 µM
CCCCCCCCCCCCCCCCCCOCC(CCP(=O)(CP(=O)(O)O)Oc1ccccc1)OCCCCCCCCCCCCCCCCCC (configuration not stated)		> 100 µM		> 100 µM		> 100 µM		> 100		> 100 µM		> 100 µM		> 100 µM		> 100 µM		> 100 µM		
Clc1ccccc1CNc1c2ccccc2nc2ccccc12	1.6 µM	6.16 µM	2.05 µM	9.71 µM	2.24 µM	11.9 µM	2.45 µM	8.58	3.39 µM	10.5 µM	1.57 µM	5.93 µM	2.21 µM	10.7 µM	1.75 µM	6.94 µM	2.03 µM	8.28 µM	1.35 µM	6.96 µM
CO/N=C(\COc1ccc2oc(-c3ccccc3)cc(=O)c2c1)c1ccc(OC)cc1	30.8 µM	> 100 µM	6.16 µM	> 100 µM	29.9 µM	98.5 µM	31 µM	> 100	22.7 µM	71 µM	41.4 µM	> 100 µM	24.4 µM	73 µM	23.7 µM	66.3 µM	27.1 µM	> 100 µM	22.8 µM	58.5 µM
COc1cc(C2=N/C(=C/c3cccs3)C(=O)O2)cc(OC)c1OC		> 100 µM		> 100 µM		> 100 µM		> 100		> 100 µM		> 100 µM		> 100 µM		> 100 µM		> 100 µM		
O=C(N/N=C/c1ccc(O)cc1O)c1cccc(Nc2ccnc(C(F)(F)F)c2)c1	0.554 µM	15 µM	0.472 µM	2.98 µM	3.01 µM	34.2 µM	1.93 µM	20.9	0.488 µM	30.9 µM	0.501 µM	12.5 µM	6.44 µM	> 72 µM	12.8 µM	> 51 µM	2.73 µM	16.2 µM	1.44 µM	33.6 µM
CC(=[N-])N1CCC[C@@H](Nc2c3ccccc3nc3ccccc23)C1.[Cl][Pt].[NH-]CCC[NH-]	0.431 µM	2.69 µM	2.04 µM	> 100 µM	3.57 µM	44.9 µM	0.0326 µM	> 100	0.763 µM	> 41.6 µM	2.25 µM	> 21.9 µM	0.0325 µM	> 100 µM	0.221 µM	0.656 µM	2.49 µM	> 100 µM	1.78 µM	9.21 µM
Cc1ccc(C(=O)/C(=C\c2ccc([N+](=O)[O-])cc2)S(=O)Cc2ccc(Cl)cc2)cc1 (configuration not stated)	1.88 µM	3.81 µM	2.47 µM	6.82 µM	1.56 µM	3.12 µM	1.75 µM	3.21	1.7 µM	3.14 µM	1.55 µM	3.04 µM	3.05 µM	11 µM	2.61 µM	7.63 µM	2.33 µM	6.2 µM	1.41 µM	2.78 µM
CC(C)=CCC/C(C)=C\CCC1(C)OC(=O)C2CC21 (configuration not stated)		> 100 µM		49.9 µM and 26.6 µM		> 100 µM and 85.2 µM		> 100		> 100 µM		81.8 µM and 29 µM				> 100 µM	71.2 µM and 24.9 µM	> 100 µM and 62.8 µM		> 100 µM
C/C(O)=C(\C#N)C(=O)Nc1ccc(C(F)(F)F)cc1	47.3 µM	> 100 µM	64.3 µM	> 100 µM	7.97 µM	> 100 µM	46.7 µM	> 100	37 µM	> 100 µM	8.21 µM	> 100 µM	26.5 µM	> 100 µM	1.36 µM	52.9 µM	23.9 µM	> 100 µM	18.1 µM	> 100 µM
Oc1ccc(C2c3ccccc3Oc3ccccc32)c2cccnc12	3.18 µM	> 100 µM	1.94 µM	> 100 µM	1.9 µM	> 100 µM	1.94 µM	> 100	2.45 µM	> 100 µM	0.778 µM	> 100 µM	1.79 µM	> 100 µM	1.74 µM	64.4 µM	1.71 µM	> 100 µM	1.21 µM	19.7 µM
Fc1cccc(-n2ccc(-c3ccccc3)nc2=S)c1		3.82 µM	94 µM	> 100 µM	17.5 µM	39.4 µM	20.3 µM	66.7	19 µM	40.6 µM	16.1 µM	29.5 µM	31.5 µM	> 87.3 µM	17.2 µM	33.3 µM	18.6 µM	42.8 µM	15.1 µM	30 µM
C/C(=N\NC(=S)SCc1ccccc1)c1ccccn1		0.464 µM		1.04 µM		15.2 µM		16.9				9.56 µM		20.5 µM		8.73 µM		16.1 µM		14.2 µM
